Key:
Assay in all cases: relative viability (nuclei count vs DMSO), 5 days (fraction); higher = more cells survive
[1] = compound: C(C(=O)C(=O)O)Br [Bromopyruvate] + CC1(C)CCC(c2ccc(Cl)cc2)=C(CN2CCN(c3ccc(C(=O)NS(=O)(=O)c4ccc(N[C@H](CCN5CCOCC5)CSc5ccccc5)c(S(=O)(=O)C(F)(F)F)c4)cc3)CC2)C1 [Navitoclax] (partner 0.5 µM)
How it was run: (§1)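 The day after seeding in 1536-well plates, lung cancer cell lines were treated by pin tool with a single drug, or with a fixed anchor-drug dose together with five library-drug doses (not always all listed) in √10 steps. After 5 days, a combined fix-and-stain solution (final 0.05% Triton X-100, 1% formaldehyde, 1 ug/ml Hoechst) was added. Nuclei counted on 4× images gave relative viability as treated counts over vehicle counts, reported as the median of duplicate plates.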

[2] = compound: C(C(=O)C(=O)O)Br [Bromopyruvate] + C[C@]1(O)C[C@@H](c2nc(-c3ccc4ccc(-c5ccccc5)nc4c3)c3c(N)nccn32)C1 [Linsitinib] (partner 1 µM)
How it was run: as §1

[3] = compound: C(C(=O)C(=O)O)Br [Bromopyruvate] + CC(=O)c1c(C)c2cnc(Nc3ccc(N4CCNCC4)cn3)nc2n(C2CCCC2)c1=O [Palbociclib] (partner 0.5 µM)
How it was run: as §1

[4] = compound: C(C(=O)C(=O)O)Br [Bromopyruvate] + CC(=O)Nc1cccc(-n2c(=O)n(C3CC3)c(=O)c3c(Nc4ccc(I)cc4F)n(C)c(=O)c(C)c32)c1 [Trametinib] (partner 0.02 µM)
How it was run: as §1

Cell Line	relative viability ([1]; first compound 1 µM)	relative viability ([1]; first compound 3.162 µM)	relative viability ([1]; first compound 10 µM)	relative viability ([1]; first compound 31.62 µM)	relative viability ([1]; first compound 100 µM)	relative viability ([2]; first compound 1 µM)	relative viability ([2]; first compound 3.162 µM)	relative viability ([2]; first compound 10 µM)	relative viability ([2]; first compound 31.62 µM)	relative viability ([2]; first compound 100 µM)	relative viability ([3]; first compound 1 µM)	relative viability ([3]; first compound 3.162 µM)	relative viability ([3]; first compound 10 µM)	relative viability ([3]; first compound 31.62 µM)	relative viability ([3]; first compound 100 µM)	relative viability ([4]; first compound 1 µM)	relative viability ([4]; first compound 3.162 µM)	relative viability ([4]; first compound 10 µM)	relative viability ([4]; first compound 31.62 µM)	relative viability ([4]; first compound 100 µM)
LU99A	0.767	0.696	0.834	0.558	0.411	0.567	0.563	0.552	0.614	0.511	0.404	0.414	0.478	0.493	0.2	0.521	0.531	0.621	0.564	0.661
LXF-289	0.983	0.987	0.898	0.99	1.02	0.966	0.969	0.981	0.951	1.01	0.625	0.649	0.629	0.637	0.638	0.671	0.653	0.627	0.693	0.67
NCI-H23	0.855	0.807	0.983	0.768	0.77	0.484	0.584	0.661	0.54	0.51	0.466	0.482	0.601	0.572	0.387	0.371	0.375	0.346	0.354	0.336
NCI-H322M	1.23	1.2	1.22	1.16	1.3	0.869	0.913	0.981	0.908	0.891	0.463	0.438	0.447	0.421	0.454	0.525	0.537	0.517	0.536	0.5
NCI-H441	0.539	0.441	0.557	0.439	0.493	0.533	0.656	0.543	0.507	0.518	0.242	0.242	0.256	0.222	0.255	0.47	0.529	0.506	0.526	0.458
NCI-H460	1.11	1.17	1.58	1.1	1.16	0.801	0.832	1.09	0.717	0.744	0.161	0.247	0.148	0.196	0.186	0.164	0.101	0.132	0.18	0.235
NCI-H520	1.05	1.08	1.21	1.18	1.03	1.06	1.09	1.11	0.961	0.893	0.235	0.209	0.228	0.232	0.267	0.653	0.716	0.755	0.637	0.646
NCI-H647	1.17	1.3	1.49	1.18	1.19	1.03	1.48	1.55	1.15	0.806	0.4	0.312	0.466	0.386	0.506	0.425	0.472	0.665	0.473	0.488
NCI-H727	0.469	0.526	0.401	0.425	0.509	0.307	0.495	0.296	0.291	0.283	0.702	0.654	0.663	0.646	0.648	0.42	0.376	0.461	0.428	0.36
NCI-H838	1.11	1.16	1.3	1.17	1.28	0.966	1.05	1.23	1.02	1.1	0.19	0.251	0.229	0.237	0.242	0.521	0.529	0.68	0.539	0.516
NCI-H1355	0.936	0.982	1	0.901	0.91	0.778	0.772	0.914	0.873	0.866	0.388	0.401	0.356	0.373	0.407	0.415	0.467	0.335	0.452	0.445
NCI-H1395	1.24	1.24	1.28	1.17	1.21	1.36	1.29	1.09	1.2	1.17	0.551	0.531	0.724	0.614	0.662	0.982	0.977	1.16	1.02	1.08
NCI-H1437	1.11	1.09	1.11	1.09	1.17	1.02	1.03	1.22	1.02	1.17	0.342	0.285	0.323	0.314	0.305	0.552	0.529	0.556	0.506	0.484
NCI-H1651	1.04	0.97	1.07	0.96	1.2	0.876	0.98	0.902	0.885	1.07	0.479	0.477	0.542	0.519	0.492	0.817	0.866	0.891	0.825	0.836
NCI-H1666	0.957	1.12	1.03	1.01	0.754	0.736	0.764	0.783	0.744	0.86	0.618	0.632	0.64	0.622	0.599	0.865	0.858	0.825	0.852	0.911
NCI-H1734	0.76	0.799	0.975	0.809	0.886	0.837	0.949	0.989	0.852	0.905	0.349	0.378	0.39	0.34	0.295	0.743	0.765	0.64	0.717	0.66

Reference: the supplement of paper PMC10307832
